Assay results as given in the supplement of paper PMC10627819.

Assays:
[1] = system: S. aureus DSM 20231; assay: Bliss interaction score (quartile over a dose matrix) (fitness difference); higher = more antagonism (negative = synergy)
Summary of the method: (§1)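 Fitness here means normalised growth, inferred for single drugs from the combination data. Growth was OD595 at entry into stationary phase, divided by the plate's robust no-drug mean and capped at 1. The Bliss score is observed minus expected fitness, with the expectation being the product, and its quartiles span technical, biological and donor/recipient replicates.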

[2] = system: S. pneumoniae D39V; assay: as above
Summary of the method: as §1

[3] = system: B. subtilis 168; assay: as above
Summary of the method: as §1

[4] = system: S. aureus Newman; assay: as above
Summary of the method: as §1

[5] = system: S. pneumoniae D39V; assay: fitness (endpoint OD595 vs no drug) (fraction); higher = more growth
Summary of the method: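 Fitness expresses the optical density reached at the stationary-phase transition as a fraction of the robust mean of no-drug control wells. It is capped at 1. Measurements were OD595 every 30 min for 14 h at 37 °C after inoculation of 384-well plates at OD595 0.01 (30 µl, or 55 µl for S. pneumoniae), minus the first reading.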
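For Bliss interaction score (quartile over a dose matrix) in this document: first quartile when negative (synergy) and third quartile when positive (antagonism).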
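For fitness (endpoint OD595 vs no drug) in this document: OD595 on entry to stationary phase over no-drug wells; at most 1.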

CC[C@H]1OC(=O)[C@H](C)[C@@H](O[C@H]2C[C@@](C)(OC)[C@@H](O)[C@H](C)O2)[C@H](C)[C@@H](O[C@@H]2O[C@H](C)C[C@H](N(C)C)[C@H]2O)[C@](C)(OC)C[C@@H](C)C(=O)[C@H](C)[C@@H](O)[C@]1(C)O [Clarithromycin] + CN1C2=CC=CC=C2N=C3C1=CC=CC3=O [Pyocyanin]
Conditions | Bliss interaction score
[1] | -0.0903
[2] | -0.0433
[3] | 0.0334
[4] | -0.0697

fitness, [5], one replicate
Conditions | first compound 0.007812 µg/mL | first compound 0.01562 µg/mL | first compound 0.03125 µg/mL | first compound 0.0625 µg/mL | first compound 0.125 µg/mL | first compound 0.25 µg/mL
partner 0.325 µg/mL | 0.965 | 0.884 | 0.682 | 0.757 | 0.486 | 0.112
partner 0.65 µg/mL | 0.928 | 0.88 | 0.651 | 0.75 | 0.501 | 0.273
partner 1.3 µg/mL | 0.747 | 0.695 | 0.525 | – | – | –

fitness, [5]
Conditions | first compound 0.07 µg/mL | first compound 0.14 µg/mL | first compound 0.28 µg/mL
partner 0.325 µg/mL | 0.0912 | 0.0902 | 0.0525
partner 0.65 µg/mL | 0.0867 | 0.0888 | 0.0453
partner 1.3 µg/mL | 0.0798 | 0.0783 | 0.0672

COc1c(N2C[C@@H]3CCCN[C@@H]3C2)c(F)cc2c(=O)c(C(=O)O)cn(C3CC3)c12 [Moxifloxacin] + CO[C@H]1/C=C/O[C@@]2(C)Oc3c(C)c(O)c4c(O)c(c(/C=N/N5CCN(C)CC5)c(O)c4c3C2=O)NC(=O)/C(C)=C\C=C\[C@H](C)[C@H](O)[C@@H](C)[C@@H](O)[C@@H](C)[C@H](OC(C)=O)[C@@H]1C [Rifampicin]
Conditions | Bliss interaction score
[1] | -0.0701
[2] | -0.0845
[3] | -0.0221
[4] | -0.0223

fitness, [5], one replicate
Conditions | first compound 0.0037 µg/mL | first compound 0.0075 µg/mL | first compound 0.015 µg/mL
partner 0.025 µg/mL | 0.868 | 0.822 | 0.779
partner 0.2 µg/mL | 0 | 0 | 0

fitness, [5]
Conditions | first compound 0.0037 µg/mL | first compound 0.005 µg/mL | first compound 0.0075 µg/mL | first compound 0.01 µg/mL | first compound 0.015 µg/mL | first compound 0.02 µg/mL
partner 0.05 µg/mL | 0.776 | 0.919 | 0.725 | 0.908 | 0.713 | 0.908
partner 0.1 µg/mL | 0.317 | – | 0.295 | – | 0.354 | –
partner 0.2 µg/mL | – | 0.168 | – | 0.196 | – | 0.198

O=C1CN(/N=C/c2ccc([N+](=O)[O-])o2)C(=O)N1 [Nitrofurantoin] + CN1C2=CC=CC=C2N=C3C1=CC=CC3=O [Pyocyanin]
Conditions | Bliss interaction score
[1] | -0.0533
[2] | -0.199
[3] | 0.0805
[4] | -0.0575

fitness, [5]
Conditions | partner 0.325 µg/mL | partner 0.65 µg/mL | partner 1.3 µg/mL
first compound 1.285 µg/mL | 0.979 | 0.919 | 0.634
first compound 2.57 µg/mL | 0.94 | 0.796 | 0.444

fitness, [5], one replicate
Conditions | first compound 2 µg/mL | first compound 4 µg/mL | first compound 5.14 µg/mL | first compound 8 µg/mL
partner 0.325 µg/mL | ≥ 1 | ≥ 1 | 0.798 | 0.738
partner 0.65 µg/mL | ≥ 1 | 0.982 | 0.637 | 0.814
partner 1.3 µg/mL | – | – | 0.332 | –
